Data published in patent US12318393B2, “Modulators of orphan nuclear receptors for NASH and other metabolic disorders” (Emory University, priority 2018, dated 2025).

Experiments:
miR-122 = test: Expression of RORα-regulated microRNA in Huh-7 cells (qRT-PCR); type: cell-based, human; conditions: 1 μM, 24 hours
Procedure: Secreted microRNA levels in the medium of Huh-7 cells were analyzed by qRT-PCR and were normalized to spiked C. elegans miR-39. miR-18 and miR-93 served as controls for secreted microRNA and were not affected following Compound 1 addition.
RNA extraction and quantitative Real-Time PCR analysis. Total RNA, including small RNAs, were isolated from 200 μL of plasma or culture media samples using the miRNeasy Mini kit (Qiagen, Valencia, CA, USA) with 2 minor modifications. First, 200 μl of plasma or culture media were lysed with 1 ml of Qiazol solution. Second, a 50 pmol/l of synthesized single strand Caenorhabditis elegans miRNA (cel-miR-39) was added as the spike-in control to monitor extraction efficiency. The remainder of the RNA extraction was performed according to the manufacturer's instructions. miRNAs were eluted with 30 μl of RNase-free water. […] The fold expression and statistical significance were calculated using the 2-ΔΔ Ct method. […]

[1] = Cellular toxicity assay in Huh-7 cells; type: cell-based; conditions: human, read-out: Cytotoxicity (IC50, μM) Huh-7
Procedure: (§1) The toxicity of the compounds was assessed in human PBM, CEM (human lymphoblastoid), and Huh-7 cells, as described previously (see Schinazi R. F., Sommadossi J.-P., Saalmann V., Cannon D. L., Xie M.-Y., Hart G. C., Smith G. A. & Hahn E. F. Antimicrob. Agents Chemother. 1990, 34, 1061-67). Cycloheximide was included as positive cytotoxic control, and untreated cells exposed to solvent were included as negative controls. The cytotoxicity IC50 was obtained from the concentration-response curve using the median effective method described previously (see Chou T.-C. & Talalay P. Adv. Enzyme Regul. 1984, 22, 27-55; Belen'kii M. S. & Schinazi R. F. Antiviral Res. 1994, 25, 1-11).

HuH7 cell = test: LDH release from HuH7 cells; type: cell-based, human; conditions: HuH7, 16 h exposure, data not shown
[2] = system: C57BL/6 mice fed with atherogenic diet; test: Atherogenic (fibrotic) diet mouse model: liver damage, inflammation, fibrosis; type: in vivo
Procedure: Male C57BL/6J mice, 7 to 8 weeks old, were housed randomly in standard cages and were fed a HFD, or atherogenic diet (consisting 1% Chol and 0.5% cholic acid, see also Table 3). All mice had free access to water during the experimental period. During the feeding period body weight was monitored every 3 days. In the HFD experiment, after 4 or 6 weeks, the resultant obese mice were treated with antagomiR-122 ([…] once a week for 3 weeks), or i.p. injected with Compound 1 (RORα agonist, 7.5 mg/kg twice a week for 3 weeks; or 15 mg/kg 3 times a week for 3 weeks). The obese control (HFD) group was administered only saline with DMSO and antagomiR-control. After 3 weeks of treatment mice were sacrificed and livers were taken for RNA-seq analysis. Livers, white adipose, and skeletal muscle tissues were frozen in liquid nitrogen or in optimum cutting temperature embedded frozen blocks, for further RNA and histologic analysis. In the atherogenic diet experiment mice were treated with 15 mg/kg Compound 1 after 3 weeks with the diet. After 3.5 weeks of treatment, mice were sacrificed, and the livers were frozen in liquid nitrogen or in optimum cutting temperature embedded frozen blocks. Plasma was collected from atherogenic diet-fed mice and saved in −20° C. for ALT and AST analysis using the Reflotron® Analyzer and test-strips (Roche).
Livers and adipose samples were placed in 4% buffered formaldehyde for 24 hours, followed by 80% ethanol and then embedded in paraffin blocks. Liver and adipose tissues were cut into […], deparaffinized with xylene and hydrated through graded ethanol. For the H&E staining, tissue sections were stained with hematoxylin (Emmonya Biotech Ltd.) and eosin (Leica, Surgipath). Liver macrophages were stained using rat anti-mouse F4/80 antigen (Serotec), followed by anti-Rat HRP (Histofine) and developed with a DAB kit (Zymed). Liver sections were stained for Masson Trichrome (Sigma). Liver CD3+ T cells were stained using Rat anti human-CD3-antibody (Bio-Rad), followed by anti-Rat HRP (Histofine) and developed with AEC (Invitrogen). α-SMA positive cells were stained using mouse anti-Human smooth Muscle Actin antibody (Dako), followed by anti-mouse HRP (Dako) and developed with DAB. The percentage area stained positively per high power field was calculated by ImageJ Software in 5-10 random fields.
Experimental design: C57BL/6 mice fed for 3 weeks with atherogenic diet (to induce fibrosis) and injected with 15 mg/kg Compound 1 (or saline+DMSO) 3 times a week for 3.5 week (n=8).
Experimental design: C57BL/6 mice fed for 3 weeks with atherogenic diet (to induce fibrosis) and injected with 15 mg/kg Compound 1 (or saline+DMSO) 3 times a week for 3.5 week (n=8). Representative microphotographs of H&E, CD3, and F4/80-stained livers taken from saline or Compound 1-treated mice are shown in FIG. 12A, where scale bars represent 10 μm. The graphs shown in FIG. 12B show quantification of positively-stained F4/80 areas using ImageJ.

[3] = Cellular toxicity assay in human PBM cells; type: cell-based; conditions: read-out: Cytotoxicity (IC50, μM) PBM
Procedure: as §1

[4] = 15 mg/kg 3 times a week for 3.5 weeks
[5] = liver, 15 mg/kg 3 times a week for 3.5 weeks
[6] = liver, 15 mg/kg 3 times a week for 3.5 weeks, vs untreated

O=C1Nc2cc(C(=O)N3CCC(Cc4ccccc4)CC3)ccc2Nc2ccccc21 [Compound 1]
secreted miR-18 and miR-93 levels in medium (control microRNAs) (miR-122): not affected | secretion of miR-122 (relative microRNA levels in Huh7 medium) (miR-122; vs DMSO): specifically increases | IC50 [1]: 10.4 µM | toxicity to the cells as measured by LDH release (HuH7 cell): no apparent toxicity | biomarkers of inflammation (Tgfb2 and TgfbR2) and fibrosis (Acta1, Col1A1 and Col3A1), liver mRNA [2, 4]: reducing | biomarkers of liver injury, AST and ALT (plasma) [2, 4]: significantly improved | mature miR-122 in tissue and in plasma [2, 4]: increased | liver vasculature (CD34 staining) ([2]; data not shown): no effect | T-cell density by CD3 staining [2, 5]: decreased | immune infiltrate by H&E staining [2, 5]: decreased | levels of myeloid infiltrate by F4/80 staining [2, 5]: decreased | reduction of fibrotic areas, Masson Trichrome (M.T) [2, 6]: 5 fold | reduction of fibrotic areas, α-SMA [2, 6]: 7 fold | IC50 [3]: 92.4 µM
